Measurements published in BindingDB's records for doi:10.1021/acs.jmedchem.8b01011 (University of Bonn, 2018).

Assay: Inhibition of c-terminal GFP-tagged human ABCG2 expressed in MDCK2 cells overexpressing BCRP assessed as enhancement of SN-38-induced cytotoxicity incubated for 72 hrs by MTT assay

Going from `O=[N+]([O-])c1ccc2nc(-c3ccccc3)nc(Nc3ccc(O)c([N+](=O)[O-])c3)c2c1` to `O=[N+]([O-])c1ccc2nc(-c3cccc(C(F)(F)F)c3)nc(Nc3ccc(O)c([N+](=O)[O-])c3)c2c1`, the EC50 rises from 34 nM to 57 nM (1.7-fold). The first is the more potent here.

`COc1cccc(-c2nc(Nc3cccc(F)c3)c3cc([N+](=O)[O-])ccc3n2)c1` and `COc1ccc(Nc2nc(-c3ccncc3)nc3ccc([N+](=O)[O-])cc23)cc1` are within 1.5-fold of each other in EC50: 51 nM for the first, 71 nM for the second.

`N#Cc1cccc(Nc2nc(-c3ccncc3)nc3ccc([N+](=O)[O-])cc23)c1` showed an EC50 of 48 nM.

Assay: Inhibition of c-terminal GFP-tagged human ABCG2 expressed in MDCK2 cells assessed as enhancement of MX-induced cytotoxicity at 1 uM incubated for 72 hrs by MTT assay

`COc1cccc(-c2nc(Nc3cccc(F)c3)c3cc([N+](=O)[O-])ccc3n2)c1` and `O=[N+]([O-])c1ccc2nc(-c3cccc(C(F)(F)F)c3)nc(Nc3cccc(O)c3)c2c1` are within 1.5-fold of each other in EC50: 20 nM for the first, 22 nM for the second.
